≈ marks a conversion by molar mass, not a printed value.
Columns and labels:
P. aeruginosa PA14 wt = assay: Antibiotic susceptibility; format: cell-based, Pseudomonas aeruginosa
P. aeruginosa PAO1 wt = assay: Antibiotic susceptibility; format: cell-based, Pseudomonas aeruginosa
E. coli DSM 1116 = assay: Antibiotic susceptibility; format: cell-based; conditions: Escherichia coli, DSM1116
P. aeruginosa PA14 ΔlecA = assay: Antibiotic susceptibility; format: cell-based; conditions: Pseudomonas aeruginosa
E. coli gyrase = E. coli gyrase (Escherichia coli, UniProt P0AES4+P0AES6); format: biochemical
Sequence of E. coli gyrase (P0AES4 whole entry, one chain of several): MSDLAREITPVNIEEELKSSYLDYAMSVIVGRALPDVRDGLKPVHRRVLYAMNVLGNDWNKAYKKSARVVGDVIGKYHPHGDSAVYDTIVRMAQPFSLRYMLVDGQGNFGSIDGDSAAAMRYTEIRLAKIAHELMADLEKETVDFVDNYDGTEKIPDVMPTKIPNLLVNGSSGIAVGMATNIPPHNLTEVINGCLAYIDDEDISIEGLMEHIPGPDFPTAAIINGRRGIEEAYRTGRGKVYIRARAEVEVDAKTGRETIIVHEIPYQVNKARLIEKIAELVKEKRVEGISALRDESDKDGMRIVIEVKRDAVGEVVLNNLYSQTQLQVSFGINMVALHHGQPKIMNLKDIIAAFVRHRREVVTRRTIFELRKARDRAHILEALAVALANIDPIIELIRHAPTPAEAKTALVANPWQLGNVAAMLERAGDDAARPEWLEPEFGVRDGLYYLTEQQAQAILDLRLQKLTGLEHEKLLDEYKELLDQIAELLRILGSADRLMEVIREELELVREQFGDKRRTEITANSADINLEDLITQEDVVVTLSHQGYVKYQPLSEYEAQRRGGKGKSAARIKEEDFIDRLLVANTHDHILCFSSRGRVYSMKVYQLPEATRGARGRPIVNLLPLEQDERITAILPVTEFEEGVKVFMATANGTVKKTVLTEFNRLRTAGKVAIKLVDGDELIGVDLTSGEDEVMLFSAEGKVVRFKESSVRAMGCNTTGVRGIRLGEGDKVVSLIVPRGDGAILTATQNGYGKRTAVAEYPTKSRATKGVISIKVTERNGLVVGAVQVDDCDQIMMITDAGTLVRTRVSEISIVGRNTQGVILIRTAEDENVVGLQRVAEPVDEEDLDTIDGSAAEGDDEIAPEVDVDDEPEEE

E. coli K12 MG1655 = assay: Antibiotic susceptibility; format: cell-based; conditions: Escherichia coli
P. aeruginosa PA14 ΔlecB = assay: Antibiotic susceptibility; format: cell-based; conditions: Pseudomonas aeruginosa
[1] = Microsomal stability, mouse liver microsomes; format: in vitro ADME; conditions: one experiment
[2] = Microsomal stability, human liver microsomes; format: in vitro ADME; conditions: one experiment
HEK293 cells = assay: Cytotoxicity; format: cell-based, human; conditions: HEK 293 and A549, 100 μM, 48 h incubation
A549 cells = assay: Cytotoxicity; format: cell-based, human; conditions: 48 h, MTT
Calu-3 HTB-55 = assay: Cell permeability, Transwell system; format: in vitro ADME, human; conditions: after 4 h, data not shown
[3] = P. aeruginosa PA14 wt + 1 μg/mL PMBN
[4] = P. aeruginosa PAO1 wt + 1 μg/mL PMBN

O=C(CCn1cc(CCN2CCN(c3cc4c(cc3F)c(=O)c(C(=O)O)cn4C3CC3)CC2)nn1)Nc1ccc(S[C@@H]2O[C@H](CO)[C@H](O)[C@H](O)[C@H]2O)cc1 [compound 25]
MIC (P. aeruginosa PA14 wt; [3]): 32 to 64 µg/mL
MIC (P. aeruginosa PAO1 wt; [4]): 32 to 64 µg/mL

O=C(CCCn1cc(CCN2CCN(c3cc4c(cc3F)c(=O)c(C(=O)O)cn4C3CC3)CC2)nn1)Nc1ccc(S[C@@H]2O[C@H](CO)[C@H](O)[C@H](O)[C@H]2O)cc1 [compound 27]
MIC (E. coli DSM 1116): 4 to 32 µg/mL (≈ 5.12 to 40.9 µM)
MIC (P. aeruginosa PA14 wt; [3]): 32 to 64 µg/mL
MIC (P. aeruginosa PAO1 wt; [4]): 32 to 64 µg/mL

C#CCN1CCN(c2cc3c(cc2F)c(=O)c(C(=O)O)cn3C2CC2)CC1 [compound 20, N-Propargyl-ciprofloxacin]
MIC (P. aeruginosa PA14 wt; [3]): 0.025 to 0.5 µg/mL
MIC (P. aeruginosa PA14 wt; Pseudomonas aeruginosa, PA14): 2 to 4 µg/mL (≈ 5.41 to 10.8 µM)
MIC (P. aeruginosa PA14 ΔlecA): 4 to 8 µg/mL (≈ 10.8 to 21.7 µM)
MIC (P. aeruginosa PAO1 wt; [4]): 1 to 2 µg/mL
MIC (P. aeruginosa PAO1 wt; Pseudomonas aeruginosa, PAO1): 4 to 8 µg/mL (≈ 10.8 to 21.7 µM)
factor of decrease in gyrase inhibitory concentration compared to 3 (E. coli gyrase): 3.5

O=C(CCCn1cc(CN2CCN(c3cc4c(cc3F)c(=O)c(C(=O)O)cn4C3CC3)CC2)nn1)Nc1ccc(S[C@@H]2O[C@H](CO)[C@H](O)[C@H](O)[C@H]2O)cc1 [compound 26]
MIC (E. coli K12 MG1655): 1 to 2 µg/mL (≈ 1.3 to 2.6 µM)
MIC (E. coli DSM 1116): 2 to 32 µg/mL (≈ 2.6 to 41.7 µM)
MIC (P. aeruginosa PA14 wt; Pseudomonas aeruginosa, PA14): 8 to 16 µg/mL (≈ 10.4 to 20.8 µM)
MIC (P. aeruginosa PA14 ΔlecA): 8 to 16 µg/mL (≈ 10.4 to 20.8 µM)
MIC (P. aeruginosa PA14 ΔlecB): 8 to 16 µg/mL (≈ 10.4 to 20.8 µM)
MIC (P. aeruginosa PAO1 wt; [4]): 4 to 8 µg/mL
MIC (P. aeruginosa PAO1 wt; Pseudomonas aeruginosa, PAO1): 16 to 32 µg/mL (≈ 20.8 to 41.7 µM)

O=C(Cn1cc(CCN2CCN(c3cc4c(cc3F)c(=O)c(C(=O)O)cn4C3CC3)CC2)nn1)Nc1ccc(S[C@@H]2O[C@H](CO)[C@H](O)[C@H](O)[C@H]2O)cc1 [compound 23]
MIC (E. coli K12 MG1655): 8 to 16 µg/mL (≈ 10.6 to 21.2 µM)
MIC (P. aeruginosa PA14 wt; [3]): 16 to 64 µg/mL
MIC (P. aeruginosa PAO1 wt; [4]): 32 to 64 µg/mL

O=C(O)c1cn(C2CC2)c2cc(N3CCNCC3)c(F)cc2c1=O [compound 3, ciprofloxacin, reference compound]
MIC (P. aeruginosa PA14 ΔlecA): 0.05 to 0.08 µg/mL (≈ 0.151 to 0.241 µM)
MIC (P. aeruginosa PA14 ΔlecB): 0.05 to 0.08 µg/mL (≈ 0.151 to 0.241 µM)
MIC (P. aeruginosa PAO1 wt; Pseudomonas aeruginosa, PAO1): 0.025 to 0.08 µg/mL (≈ 0.0754 to 0.241 µM)

O=C(CCn1cc(CN2CCN(c3cc4c(cc3F)c(=O)c(C(=O)O)cn4C3CC3)CC2)nn1)Nc1ccc(S[C@@H]2O[C@H](CO)[C@H](O)[C@H](O)[C@H]2O)cc1 [compound 24]
MIC (E. coli DSM 1116): 2 to 4 µg/mL (≈ 2.65 to 5.31 µM)
MIC (P. aeruginosa PA14 wt; [3]): 8 to 16 µg/mL
MIC (P. aeruginosa PA14 wt; Pseudomonas aeruginosa, PA14): 8 to 16 µg/mL (≈ 10.6 to 21.2 µM)
MIC (P. aeruginosa PA14 ΔlecA): 8 to 16 µg/mL (≈ 10.6 to 21.2 µM)
MIC (P. aeruginosa PA14 ΔlecB): 8 to 32 µg/mL (≈ 10.6 to 42.5 µM)
MIC (P. aeruginosa PAO1 wt; [4]): 4 to 8 µg/mL

O=C(CCCCn1cc(CN2CCN(c3cc4c(cc3F)c(=O)c(C(=O)O)cn4C3CC3)CC2)nn1)Nc1ccc(S[C@@H]2O[C@H](CO)[C@H](O)[C@H](O)[C@H]2O)cc1 [compound 28]
MIC (E. coli K12 MG1655): 2 to 4 µg/mL (≈ 2.56 to 5.12 µM)
MIC (E. coli DSM 1116): 4 to 32 µg/mL (≈ 5.12 to 40.9 µM)
MIC (P. aeruginosa PA14 wt; [3]): 2 to 8 µg/mL
MIC (P. aeruginosa PA14 ΔlecB): 32 to 64 µg/mL (≈ 40.9 to 81.9 µM)
MIC (P. aeruginosa PAO1 wt; [4]): 8 to 16 µg/mL
MIC (P. aeruginosa PAO1 wt; Pseudomonas aeruginosa, PAO1): 32 to 64 µg/mL (≈ 40.9 to 81.9 µM)

C[C@@H]1O[C@H](CNS(=O)(=O)c2ccc(CCn3cc(CN4CCN(c5cc6c(cc5F)c(=O)c(C(=O)O)cn6C5CC5)CC4)nn3)s2)[C@@H](O)[C@H](O)[C@@H]1O [compound 30]
MIC (E. coli K12 MG1655): 8 to 16 µg/mL (≈ 10.5 to 21 µM)
MIC (E. coli DSM 1116): 16 to 32 µg/mL (≈ 21 to 42 µM)
MIC (P. aeruginosa PAO1 wt; [4]): 32 to 64 µg/mL
metabolic stability CLMIC MLM [1]: 10 μL/min/mg protein
metabolic stability CLMIC HLM [2]: 15 μL/min/mg protein
acute cytotoxicity (in words) (HEK293 cells): no cytotoxicity
cytotoxicity @ 100 μM A549 (A549 cells): –9 ± 15 % inhibition
permeation (apical to basal) over Calu-3 HTB-55 cells (Calu-3 HTB-55): No detectable permeation

O=C(CCCCn1cc(CCN2CCN(c3cc4c(cc3F)c(=O)c(C(=O)O)cn4C3CC3)CC2)nn1)Nc1ccc(S[C@@H]2O[C@H](CO)[C@H](O)[C@H](O)[C@H]2O)cc1 [compound 29]
MIC (E. coli DSM 1116): 4 to 32 µg/mL (≈ 5.03 to 40.2 µM)
MIC (P. aeruginosa PA14 wt; [3]): 32 to 64 µg/mL
MIC (P. aeruginosa PAO1 wt; [4]): 32 to 64 µg/mL

O=C(Cn1cc(CN2CCN(c3cc4c(cc3F)c(=O)c(C(=O)O)cn4C3CC3)CC2)nn1)Nc1ccc(S[C@@H]2O[C@H](CO)[C@H](O)[C@H](O)[C@H]2O)cc1 [compound 22]
MIC (E. coli DSM 1116): 2 to 4 µg/mL (≈ 2.7 to 5.41 µM)
MIC (P. aeruginosa PA14 wt; [3]): 4 to 16 µg/mL
MIC (P. aeruginosa PA14 ΔlecA): 16 to 32 µg/mL (≈ 21.6 to 43.3 µM)
MIC (P. aeruginosa PA14 ΔlecB): 16 to 32 µg/mL (≈ 21.6 to 43.3 µM)
MIC (P. aeruginosa PAO1 wt; [4]): 4 to 8 µg/mL
MIC (P. aeruginosa PAO1 wt; Pseudomonas aeruginosa, PAO1): 16 to 32 µg/mL (≈ 21.6 to 43.3 µM)
metabolic stability CLMIC MLM [1]: 10 μL/min/mg protein
metabolic stability CLMIC HLM [2]: 10 μL/min/mg protein
acute cytotoxicity (in words) (HEK293 cells): no cytotoxicity
permeation (apical to basal) over Calu-3 HTB-55 cells (Calu-3 HTB-55): No detectable permeation

From article PMC7586336 (Journal of Medicinal Chemistry, 2020)
